Like-named read-outs stand apart in the source and are kept apart here.
How the values were obtained:
[1] = system: Ctenocephalides felis
Method in brief: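 Adult cat fleas (3–7 days post-emergence), 15 per flask in ≥4 replicates, exposed to a dried acetone residue at 1.26 μg/cm^2 on a Coatasil-treated glass flask base. Held at 25±1° C, 75±5% humidity; mortality (immobile or unable to right) scored at 8, 24 and/or 48 h.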

[2] = system: Ctenocephalides felis; experiment: Ctenocephalides felis adulticide assay: C. felis dose response (LC50)
Source text: c) Ctenocephalides felis Adulticide Assay: C. felis Dose Response
The purpose of this example was to determine the LC50 when cat fleas were contacted with a glass surface treated with sample compounds or formulations prepared as described above. […] The test species was the cat flea (Ctenocephalides felis). The strain used was obtained from external suppliers as pupae and held in the laboratory under testing conditions until the adults had emerged. Fifteen (15) fleas were used in a minimum of four replicates for each dose level (total of 60 fleas per dose level). The insects were selected to be in the adult life stage, aged between 3 and 7 days post emergence.
The compounds to be tested were dissolved in acetone just prior to testing. Samples of compounds were stored in a refrigerator (5±1° C.) unless otherwise specified. During the mortality testing, the temperature was maintained at 25±1° C. Humidity was maintained at 75±5%. The base (area=159 mm^2) of a 100 mL glass Erlenmeyer (conical) flask provided the treatment surface. Flasks were pretreated with Coatasil™ glass treatment to maximise bio-availability of test compounds by preventing them from binding to the glass surface.
The base of the 100 mL Erlenmeyer flask was treated with 0.5 mL of test sample in acetone and gently swirled. This volume was sufficient to cover the base of the flask. Flasks were left to dry for 24 hours before flea exposure. Adult cat fleas were lightly anaesthetised by cooling and then placed into a sorting chamber, which allowed fleas to revive and jump into the Erlenmeyer flasks. Fifteen (15) adult cat fleas were collected in each flask. The top of the flasks were then covered in Parafilm™ and small holes made to allow gas exchange. A 0.5 mL volume of acetone was applied to the base of an Erlenmeyer flask and the testing proceeded in the same manner described above. Cat fleas in the treatment containers were held under testing conditions for 24 hours. Mortality resulting from the treatments was recorded at 8 and 24 hours.

[3] = system: Rhipicephalus sanguineus; experiment: Rapid screening protocol for topical application on brown dog ticks (% mortality); settings: data from laboratory 2
Protocol: d) Rapid Screening Protocol for Topical Application on Brown Dog Ticks (Rhipicephalus sanguineus)
The aim of the test was to determine the presence of significant acaricidal activity in sample compounds or formulations when applied topically on brown dog ticks. A tick was defined as dead if it gave no apparent response when touched lightly and observed for 1 minute. To assess the experimental compound for acaricidal activity, a single dose level was chosen based on known results from previous experiments with a commercially available active reference compound. Both permethrin and fipronil were employed as reference compounds. The insect species tested was the Brown Dog Tick (Rhipicephalus sanguineus). Mixed sex adult ticks were used for tests. The strain used was cultured by von Berky Veterinary Services, Woody Point, QLD, AU and supplied as unfed adult ticks (mixed sex). Ticks were maintained in controlled conditions (temp. 18°±2° C., humidity 75±5% RH).
Test compounds (formulations or active ingredients) were stored in a refrigerator (5±1° C.) unless otherwise specified. Temperature was maintained at 25±1° C. and the humidity was ambient. The screening dose chosen was higher than that known to kill 90% of insects (LD90) using the reference compound. In the case of topical application of active compounds on adult ticks, the reference compound was fipronil and the dose chosen was 10 μg of active per tick (=10 μg of fipronil/1 μl of acetone). Ticks were each treated on the abdomen with 1 μL of a single dose level of test sample in acetone; ten ticks were treated with solvent only (acetone) in each test. Tests were replicated 4 times (total of 40 ticks treated). Ticks were held in recovery containers maintained under appropriate rearing conditions for 24 hours. Mortality resulting from the treatments was recorded at 24 hours. Pooled 24 hour mortality data were converted to percentages.

[4] = system: Rhipicephalus sanguineus; experiment: Dose response protocol for topical application on brown dog ticks (LD50); settings: 24 h mortality, probit analysis
Protocol: e) Dose response protocol for topical application on brown dog ticks (Rhipicephalus sanguineus): The test determines the level of insecticidal activity of sample compounds or formulations when applied topically on brown dog ticks. Sample compounds were stored prior to use in a freezer (−5±1° C.), unless otherwise specified.
• Mortality: A tick is defined as dead after it gives no apparent response when touched lightly or gently breathed upon, while observed for 30 seconds. • LD50 (Lethal Dose 50): The dose of a topically applied treatment at which 50% of the dog ticks are killed. • Reference compound: To assess an experimental compound for significant acaricidal activity a single dose level is chosen, which is based upon known results from previous experiments using a commercially available active i.e., a reference compound. The reference compound selected is one in common use, and one that has a similar mode of action against the Brown Dog Tick (i.e., the test species), • Recovery container: A recovery container consists of a 500 ml round plastic container measuring 115 mm diameter and 70 mm height, with a tight fitting lid that has 10 small (˜1 mm) holes inserted for air exchange. A 90 mm diameter piece of filter paper was placed on the bottom of the container and moistened with 1 mL of distilled water.
Adult, mixed sex, Brown Dog Ticks (Rhipicephalus sanguineus) were reared as follows: (i) cultured, (ii) transferred unfed, to a testing laboratory, and (iii) then maintained under controlled conditions (i.e., temp. 18°±2° C., humidity 75±5% RH). The ticks used were selected for vigor prior to testing, i.e., capable of actively walking and responsive to being touched or gently breathed upon.
During the testing, the temperature was maintained at 25±1° C. and the humidity was ambient. Seven dose levels (concentrations) of sample compound, in the form of serial dilutions in acetone, were derived from a pilot study and covered a range that produced very low to very high mortality. Groups of ten ticks were treated topically (on the abdomen) with 1 μL of a single dose level of the sample compound. Each test was replicated four times, i.e., employing a total of 40 ticks per dose level of each sample compound. As a control, ten ticks were treated with solvent only (acetone) for each test. Following the treatment, the ticks were held in recovery containers maintained under appropriate rearing conditions for 24 hours. Mortality resulting from the treatments was recorded at 24 hours. […] Press, London (1971).]

| Structure (SMILES) | C. felis Mortality (%) 8 h [1] | C. felis Mortality (%) 24 h [1] | C. felis LC50 [2] | R. sanguineus Mortality (%) 24 h [3] | R. sanguineus LD50 [4] | C. felis LC50 ([2]; data from laboratory 1) |
| --- | --- | --- | --- | --- | --- | --- |
| CC(=NN(c1ccc(F)cc1)C(C)C)c1cc(Cl)ccc1NS(=O)(=O)C(F)(F)F [Compound 48] | 95% | 100% | 0.64 ppm | 80% | 6.3 μg/tick |  |
| CC(=NN(C)c1ccccc1F)c1cc(Cl)ccc1NS(=O)(=O)C(F)(F)F [Compound 49] | 100% | 100% |  | 100% | 1.6 μg/tick | 0.31 ppm |
| CC(=NN(C)c1cccc(Cl)c1)c1cc(Cl)ccc1NS(=O)(=O)C(F)(F)F [Compound 51] | 100% | 100% | 0.82 ppm | 100% | 2.6 μg/tick |  |
| CCN(N=C(C)c1cc(Cl)ccc1NS(=O)(=O)C(F)(F)F)c1ccc(Br)cc1 [Compound 54] | 95% | 100% | 1.6 ppm | 95% | 5.6 μg/tick |  |
| CC(=NN1CC(=O)NC1=O)c1cc(Cl)ccc1NS(=O)(=O)C(F)(F)F [Compound 55] | 100% | 100% |  | 100% | 1.7 μg/tick | 2.5 ppm |
| CC(=NN(C)C(=O)c1ccc(Cl)cc1)c1cc(Cl)ccc1NS(=O)(=O)C(F)(F)F [Compound 59] | 100% | 100% | 2.9 ppm | 100% | 1.8 μg/tick |  |
| CCC(=NNC(=O)c1ccc(Cl)cc1)c1cc(Cl)ccc1NS(=O)(=O)C(F)(F)F [Compound 60] | 60% | 100% | 4.1 ppm | 75% | 7.1 μg/tick |  |
| CC(=NN(C)C(=O)c1ccc(Cl)cc1Cl)c1cc(Cl)ccc1NS(=O)(=O)C(F)(F)F [Compound 62] | 100% | 100% | 2.2 ppm | 100% | 1.6 μg/tick |  |
| CCN(N=C(C)c1cc(Cl)ccc1NS(=O)(=O)C(F)(F)F)c1cc(Cl)cc(Cl)c1 [Compound 70] | 95% | 100% | 1.8 ppm | 100% | 4.1 μg/tick |  |
| CCN(N=C(C)c1cc(Cl)ccc1NS(=O)(=O)C(F)(F)F)c1ccc(Cl)c(Cl)c1 [Compound 71] | 94% | 100% | 2.5 ppm | 98% | 4.2 μg/tick |  |
| CCCN(N=C(C)c1cc(Cl)ccc1NS(=O)(=O)C(F)(F)F)c1cccc(F)c1 [Compound 72] | 100% | 100% | 1.5 ppm | 100% | 3.1 μg/tick |  |
| CCCN(N=C(C)c1cc(Cl)ccc1NS(=O)(=O)C(F)(F)F)c1ccc(C)cc1 [Compound 73] | 96% | 100% | 2.1 ppm | 88% | 5.3 μg/tick |  |
| CC(=NN(C)c1cccc(F)c1)c1cc(Cl)ccc1NS(=O)(=O)C(F)(F)F [Compound 74] | 100% | 100% | 0.76 ppm | 100% | 2.0 μg/tick |  |
| CCN(N=C(C)c1cc(Cl)ccc1NS(=O)(=O)C(F)(F)F)c1cccc(F)c1 [Compound 76] | 100% | 100% | 0.42 ppm | 98% | 2.1 μg/tick |  |
| CCC(=NN(C)C(=O)c1ccc(Cl)cc1)c1cc(Cl)ccc1NS(=O)(=O)C(F)(F)F [Compound 81] | 100% | 100% | 2.2 ppm | 100% | 1.49 μg/tick |  |
| CCC(=NN(C)C(=O)c1ccc(Cl)cc1Cl)c1cc(Cl)ccc1NS(=O)(=O)C(F)(F)F [Compound 82] | 98% | 100% | 2.4 ppm | 100% | 2.0 μg/tick |  |
| CC(=NN(C)c1ccc(Cl)c(Cl)c1)c1cc(Cl)ccc1NS(=O)(=O)C(F)(F)F [Compound 96] | 19% | 99% | 2.0 ppm | 78% | 3.0 μg/tick |  |

— patent publication US20070238700A1, “N-PHENYL-1,1,1-TRIFLUOROMETHANESULFONAMIDE HYDRAZONE DERIVATIVE COMPOUNDS AND THEIR USAGE IN CONTROLLING PARASITES” (priority 2006, published 2007)
